From patent US8329645B2, “Polymyxin derivatives and uses thereof” (priority 2008, dated 2012)

Columns and labels:
E. coli IH3080 [1] = assay: Growth inhibition around wells on LB agar plates; assay type: cell-based, Escherichia coli
Experimental: Peptides synthesized in Example 1, all carrying at least two (2) but not more than three (3) positive charges, were studied for their ability to inhibit the growth of E. coli. This was tested employing LB agar (LB Agar Lennox, Difco, BD, Sparks, Md., U.S.A) plates. The indicator organism E. coli IH3080 (K1:O018) was an encapsulated strain originally isolated from a neonate suffering from meningitis (Vaara et al. 1984) and obtained from National Public Health Institute, Helsinki, Finland.
(§1) From an overnight-grown culture of IH3080 on LB agar, a suspension of approx. 10^8 cells/ml was prepared in 0.9% NaCl. Aliquots of this suspension were then pipetted on the agar plates and the plates were gently shaken to spread the suspension evenly on the entire surface of the plate. Thereafter, the unabsorbed part of the suspension was removed by using a Pasteur pipette. After the surface had dried, small wells (diameter, 2 mm) were drilled on the plates (five wells per plate) by using a sterile sharp-edged narrow metal tube, single-use pipette tip, and vacuum suction. An alternative method used a swab to spread the inoculum. […] Controls included 0.9% NaCl solution without the compound to be tested. The plates were then incubated for 18 h at 37° C. whereafter the diameters of growth inhibition zones around each well were measured; the diameter of the well itself was not reduced. Finally, the diameters were converted to surface areas of growth inhibition (in square mm).

[2] = test system: Acinetobacter baumannii ATCC 19606; assay: Growth inhibition around wells on LB agar plates; assay type: cell-based; details: A. baumannii ATCC 19606
Experimental: as §1
(§2) Direct antibacterial activity of sixteen NAB compounds against Acinetobacter baumannii ATCC 19606 and Pseudomonas aeruginosa ATCC 27853 was tested by using the susceptibility determination method described in Example 2. Five compounds (NAB7062, NAB734, NAB737, NAB739, and NAB740) had very notable activity against A. baumannii. […] The antibacterial activity of NAB739 and NAB740 were as strong as or even stronger than that of polymyxin B.

[3] = test system: Pseudomonas aeruginosa ATCC 27853; assay: Growth inhibition around wells on LB agar plates; assay type: cell-based; details: Ps. aeruginosa ATCC 27853
Experimental: (§3) From an overnight-grown culture of IH3080 on LB agar, a suspension of approx. 10^8 cells/ml was prepared in 0.9% NaCl. Aliquots of this suspension were then pipetted on the agar plates and the plates were gently shaken to spread the suspension evenly on the entire surface of the plate. Thereafter, the unabsorbed part of the suspension was removed by using a Pasteur pipette. After the surface had dried, small wells (diameter, 2 mm) were drilled on the plates (five wells per plate) by using a sterile sharp-edged narrow metal tube, single-use pipette tip, and vacuum suction. An alternative method used a swab to spread the inoculum. Samples (4 μl and 10 μl) of the peptide solution in 0.9% NaCl (at concentrations of 1 μg/ml and 0.1 μg/ml) were then pipetted to the wells and the sample fluids were allowed to absorb. Controls included 0.9% NaCl solution without the compound to be tested. The plates were then incubated for 18 h at 37° C. whereafter the diameters of growth inhibition zones around each well were measured; the diameter of the well itself was not reduced. Finally, the diameters were converted to surface areas of growth inhibition (in square mm).
as §2

E. coli IH3080 [4] = assay: Sensitization to rifampin: growth inhibition around wells on LB plates containing rifampin; assay type: cell-based, Escherichia coli; details: 4 μg of compound
Experimental: as §3

A. baumannii ATCC 19606 = assay: as above; assay type: cell-based, Acinetobacter baumannii; details: 4 μg
[5] = test system: Ps. aeruginosa ATCC 27853; assay: as above; assay type: cell-based, Pseudomonas aeruginosa; details: 4 μg

## OA-Thr-Thr-DSer-cy[Dab-Dab-DPhe-Leu-Dab-Dab-Thr-] [NAB 748]
E. coli IH3080 [1]; 4 μg of compound per well
  growth inhibition around a well: 113 square millimeters
E. coli IH3080 [1]; 10 μg of compound per well
  growth inhibition around a well: 156 square millimeters
[2]; 4 μg
  growth inhibition around a well: 20 square millimeters
[2]; 10 μg
  growth inhibition around a well: 50 square millimeters
[3]; 4 μg
  growth inhibition around a well: 20 square millimeters
[3]; 10 μg
  growth inhibition around a well: 50 square millimeters
E. coli IH3080 [4]; rifampin 0 μg/ml
  growth inhibition around a well in the presence of rifampin: 113 square millimeters
E. coli IH3080 [4]; rifampin 0.1 μg/ml
  growth inhibition around a well in the presence of rifampin: 154 square millimeters
E. coli IH3080 [4]; rifampin 1.0 μg/ml
  growth inhibition around a well in the presence of rifampin: 154 square millimeters
A. baumannii ATCC 19606; rifampin 0 μg/ml
  growth inhibition around a well in the presence of rifampin: 20 square millimeters
A. baumannii ATCC 19606; rifampin 0.1 μg/ml
  growth inhibition around a well in the presence of rifampin: 133 square millimeters
A. baumannii ATCC 19606; rifampin 0.3 μg/ml
  growth inhibition around a well in the presence of rifampin: 201 square millimeters
[5]; rifampin 0 μg/ml
  growth inhibition around a well in the presence of rifampin: 20 square millimeters
[5]; rifampin 0.1 μg/ml
  growth inhibition around a well in the presence of rifampin: 13 square millimeters
[5]; rifampin 0.3 μg/ml
  growth inhibition around a well in the presence of rifampin: 20 square millimeters

## DA-Thr-Abu-cy[Dab-Dab-DPhe-Leu-Dab-Dab-Thr-] [NAB 7062]
E. coli IH3080 [1]; 10 μg of compound per well
  growth inhibition around a well: 99 square millimeters
[2]; 4 μg
  growth inhibition around a well: 13 square millimeters
[2]; 10 μg
  growth inhibition around a well: 38 square millimeters
[3]; 4 μg
  growth inhibition around a well: 0 square millimeters
[3]; 10 μg
  growth inhibition around a well: 0 square millimeters
E. coli IH3080 [4]; rifampin 0 μg/ml
  growth inhibition around a well in the presence of rifampin: 50 square millimeters
E. coli IH3080 [4]; rifampin 1.0 μg/ml
  growth inhibition around a well in the presence of rifampin: 104 square millimeters
A. baumannii ATCC 19606; rifampin 0 μg/ml
  growth inhibition around a well in the presence of rifampin: 13 square millimeters
A. baumannii ATCC 19606; rifampin 0.1 μg/ml
  growth inhibition around a well in the presence of rifampin: 50 square millimeters
A. baumannii ATCC 19606; rifampin 0.3 μg/ml
  growth inhibition around a well in the presence of rifampin: 95 square millimeters
[5]; rifampin 0 μg/ml
  growth inhibition around a well in the presence of rifampin: 0 square millimeters
[5]; rifampin 0.1 μg/ml
  growth inhibition around a well in the presence of rifampin: 0 square millimeters
[5]; rifampin 0.3 μg/ml
  growth inhibition around a well in the presence of rifampin: 7 square millimeters

## DA-cy[Dab-Dab-DPhe-Leu-Dab-Dab-Thr-] [NAB 736]
E. coli IH3080 [1]; 4 μg of compound per well
  growth inhibition around a well: 0 square millimeters
E. coli IH3080 [1]; 10 μg of compound per well
  growth inhibition around a well: 0 square millimeters
[2]; 4 μg
  growth inhibition around a well: 0 square millimeters
[2]; 10 μg
  growth inhibition around a well: 0 square millimeters
[3]; 4 μg
  growth inhibition around a well: 38 square millimeters
[3]; 10 μg
  growth inhibition around a well: 79 square millimeters
E. coli IH3080 [4]; rifampin 0 μg/ml
  growth inhibition around a well in the presence of rifampin: 0 square millimeters
E. coli IH3080 [4]; rifampin 0.1 μg/ml
  growth inhibition around a well in the presence of rifampin: 113 square millimeters
E. coli IH3080 [4]; rifampin 1.0 μg/ml
  growth inhibition around a well in the presence of rifampin: 133 square millimeters
A. baumannii ATCC 19606; rifampin 0 μg/ml
  growth inhibition around a well in the presence of rifampin: 0 square millimeters
A. baumannii ATCC 19606; rifampin 0.1 μg/ml
  growth inhibition around a well in the presence of rifampin: 95 square millimeters
A. baumannii ATCC 19606; rifampin 0.3 μg/ml
  growth inhibition around a well in the presence of rifampin: 154 square millimeters
[5]; rifampin 0 μg/ml
  growth inhibition around a well in the presence of rifampin: 38 square millimeters
[5]; rifampin 0.1 μg/ml
  growth inhibition around a well in the presence of rifampin: 38 square millimeters
[5]; rifampin 0.3 μg/ml
  growth inhibition around a well in the presence of rifampin: 38 square millimeters

## OA-Ala-Thr-DSer-cy[Dab-Dab-DPhe-Leu-Dab-Dab-Thr-] [NAB 749]
E. coli IH3080 [1]; 4 μg of compound per well
  growth inhibition around a well: 113 square millimeters
E. coli IH3080 [1]; 10 μg of compound per well
  growth inhibition around a well: 158 square millimeters
[2]; 4 μg
  growth inhibition around a well: 20 square millimeters
[2]; 10 μg
  growth inhibition around a well: 38 square millimeters
[3]; 4 μg
  growth inhibition around a well: 20 square millimeters
[3]; 10 μg
  growth inhibition around a well: 28 square millimeters
E. coli IH3080 [4]; rifampin 0 μg/ml
  growth inhibition around a well in the presence of rifampin: 133 square millimeters
E. coli IH3080 [4]; rifampin 0.1 μg/ml
  growth inhibition around a well in the presence of rifampin: 133 square millimeters
E. coli IH3080 [4]; rifampin 1.0 μg/ml
  growth inhibition around a well in the presence of rifampin: 177 square millimeters
A. baumannii ATCC 19606; rifampin 0 μg/ml
  growth inhibition around a well in the presence of rifampin: 20 square millimeters
A. baumannii ATCC 19606; rifampin 0.1 μg/ml
  growth inhibition around a well in the presence of rifampin: 154 square millimeters
A. baumannii ATCC 19606; rifampin 0.3 μg/ml
  growth inhibition around a well in the presence of rifampin: 201 square millimeters
[5]; rifampin 0 μg/ml
  growth inhibition around a well in the presence of rifampin: 20 square millimeters
[5]; rifampin 0.1 μg/ml
  growth inhibition around a well in the presence of rifampin: 20 square millimeters
[5]; rifampin 0.3 μg/ml
  growth inhibition around a well in the presence of rifampin: 13 square millimeters

## OA-Thr-Asn-cy[Dab-Dab-DPhe-Leu-Dab-Dab-Thr-] [NAB 746]
E. coli IH3080 [1]; 4 μg of compound per well
  growth inhibition around a well: 0 square millimeters
E. coli IH3080 [1]; 10 μg of compound per well
  growth inhibition around a well: 13 square millimeters
[2]; 4 μg
  growth inhibition around a well: 0 square millimeters
[2]; 10 μg
  growth inhibition around a well: 0 square millimeters
[3]; 4 μg
  growth inhibition around a well: 0 square millimeters
[3]; 10 μg
  growth inhibition around a well: 20 square millimeters
E. coli IH3080 [4]; rifampin 0 μg/ml
  growth inhibition around a well in the presence of rifampin: 0 square millimeters
E. coli IH3080 [4]; rifampin 0.1 μg/ml
  growth inhibition around a well in the presence of rifampin: 79 square millimeters
E. coli IH3080 [4]; rifampin 1.0 μg/ml
  growth inhibition around a well in the presence of rifampin: 95 square millimeters
A. baumannii ATCC 19606; rifampin 0 μg/ml
  growth inhibition around a well in the presence of rifampin: 0 square millimeters
A. baumannii ATCC 19606; rifampin 0.1 μg/ml
  growth inhibition around a well in the presence of rifampin: 64 square millimeters
A. baumannii ATCC 19606; rifampin 0.3 μg/ml
  growth inhibition around a well in the presence of rifampin: 95 square millimeters
[5]; rifampin 0 μg/ml
  growth inhibition around a well in the presence of rifampin: 0 square millimeters
[5]; rifampin 0.1 μg/ml
  growth inhibition around a well in the presence of rifampin: 7 square millimeters
[5]; rifampin 0.3 μg/ml
  growth inhibition around a well in the presence of rifampin: 0 square millimeters

## OA-Thr-Abu-cy[Dab-Dab-DLeu-Leu-Dab-Dab-Thr-] [NAB 718]
E. coli IH3080 [1]; 4 μg of compound per well
  growth inhibition around a well: 0 square millimeters
E. coli IH3080 [1]; 10 μg of compound per well
  growth inhibition around a well: 0 square millimeters
[2]; 4 μg
  growth inhibition around a well: 0 square millimeters
[2]; 10 μg
  growth inhibition around a well: 0 square millimeters
[3]; 4 μg
  growth inhibition around a well: 0 square millimeters
[3]; 10 μg
  growth inhibition around a well: 0 square millimeters
E. coli IH3080 [4]; rifampin 0 μg/ml
  growth inhibition around a well in the presence of rifampin: 0 square millimeters
E. coli IH3080 [4]; rifampin 0.1 μg/ml
  growth inhibition around a well in the presence of rifampin: 13 square millimeters
E. coli IH3080 [4]; rifampin 1.0 μg/ml
  growth inhibition around a well in the presence of rifampin: 133 square millimeters
A. baumannii ATCC 19606; rifampin 0 μg/ml
  growth inhibition around a well in the presence of rifampin: 0 square millimeters
A. baumannii ATCC 19606; rifampin 0.1 μg/ml
  growth inhibition around a well in the presence of rifampin: 0 square millimeters
A. baumannii ATCC 19606; rifampin 0.3 μg/ml
  growth inhibition around a well in the presence of rifampin: 38 square millimeters
[5]; rifampin 0 μg/ml
  growth inhibition around a well in the presence of rifampin: 0 square millimeters
[5]; rifampin 0.1 μg/ml
  growth inhibition around a well in the presence of rifampin: 0 square millimeters
[5]; rifampin 0.3 μg/ml
  growth inhibition around a well in the presence of rifampin: 0 square millimeters
